Measurements published in patent US20240010726A1, “LFA-1 SIGNALLING MEDIATOR FOR USE IN CANCER THERAPY” (Universität Basel, priority 2020, published 2024).

Target: T1, LFA-1 (Homo sapiens, UniProt P05107+P20701)
T1 construct: endogenous in cells; host or cells: primary human T cells from healthy donors: PHA-induced T cell blasts, sorted EM and naive CD8 T cells, and NY-ESO-1 TCR-transduced REP T cells
Assay: Flow cytometry of LFA-1 open head-piece (mAb m24) on EM and naïve CD8 T cells
Format: cell-based
Protocol: FIG. 2: Extracellular magnesium promotes memory-specific activation via LFA-1. Glycolytic switch of human EM CD8 T cells (a) and naïve CD8 T cells (b) subsets upon injection of anti-CD3 Ab only, or anti-CD3 and anti-CD28 Ab, was assessed by metabolic flux analysis in medium containing either 1.2 mM Mg^2+, 0 mM Mg^2+, or medium which was reconstituted from 0 mM to 1.2 mM Mg^2+ immediately prior to activation (0→1.2 mM Mg^2+). (a) Results for human effector memory (EM) and (b) for human naïve CD8 T cells. Glycolytic switch was quantified by subtracting […] measurements. (c) Flow cytometric analysis of surface activation markers on human EM CD8 T cells 24 hours after activation by plate-bound anti-CD3 Ab and soluble anti-CD28 Ab, in 1.2 mM and 0 mM Mg^2+ media, respectively. (d) Abundance of inflammatory cytokines in corresponding EM CD8 T cell culture supernatants, determined by CBA. (e) CD11a (LFA-1) surface expression on human naïve and EM CD8 T cells as well PHA T cell blasts. Flow cytometry-based assessment of total LFA-1 expression assessed by mAb TS2/4 (f), closed conformation of αL by mAb HI111 (g), extended conformation of LFA-1 by mAb Kim127 (h), open head-piece conformation of LFA-1 by mAb m24 (i), phosphorylation of focal adhesion kinase (FAK) […] as well TNF expression (k)±TCR-induced activation in different extracellular Mg^2+ concentrations. […]

T1 sequence (P20701 26-1170): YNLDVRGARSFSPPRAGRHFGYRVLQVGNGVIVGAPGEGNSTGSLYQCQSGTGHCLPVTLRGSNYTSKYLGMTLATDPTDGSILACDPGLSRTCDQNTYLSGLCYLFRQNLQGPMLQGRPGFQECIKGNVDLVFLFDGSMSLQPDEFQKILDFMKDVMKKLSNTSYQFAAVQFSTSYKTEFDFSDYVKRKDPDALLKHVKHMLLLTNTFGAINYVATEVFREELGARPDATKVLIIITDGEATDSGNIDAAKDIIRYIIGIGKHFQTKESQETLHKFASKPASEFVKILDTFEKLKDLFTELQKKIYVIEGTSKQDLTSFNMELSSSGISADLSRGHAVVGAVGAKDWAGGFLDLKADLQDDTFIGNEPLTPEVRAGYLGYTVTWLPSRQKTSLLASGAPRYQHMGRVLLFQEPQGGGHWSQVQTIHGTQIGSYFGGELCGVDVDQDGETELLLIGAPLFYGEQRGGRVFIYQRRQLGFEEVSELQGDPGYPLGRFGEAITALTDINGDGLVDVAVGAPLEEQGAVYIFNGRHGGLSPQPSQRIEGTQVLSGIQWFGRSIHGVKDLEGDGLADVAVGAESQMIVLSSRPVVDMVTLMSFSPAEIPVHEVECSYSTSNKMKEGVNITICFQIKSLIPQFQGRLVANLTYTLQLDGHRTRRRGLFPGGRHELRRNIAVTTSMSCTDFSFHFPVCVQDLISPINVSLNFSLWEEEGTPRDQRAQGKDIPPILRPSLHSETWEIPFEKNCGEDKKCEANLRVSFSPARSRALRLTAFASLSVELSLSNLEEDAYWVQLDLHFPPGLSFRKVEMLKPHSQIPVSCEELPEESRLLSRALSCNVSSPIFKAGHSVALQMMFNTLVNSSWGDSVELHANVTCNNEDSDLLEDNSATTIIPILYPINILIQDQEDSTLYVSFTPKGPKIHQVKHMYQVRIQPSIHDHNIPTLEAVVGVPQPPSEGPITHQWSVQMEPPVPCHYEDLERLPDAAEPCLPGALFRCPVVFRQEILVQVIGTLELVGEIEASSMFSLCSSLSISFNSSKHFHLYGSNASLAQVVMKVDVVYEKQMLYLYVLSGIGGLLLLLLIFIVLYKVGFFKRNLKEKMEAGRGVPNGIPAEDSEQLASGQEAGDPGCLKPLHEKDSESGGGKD
T1 sequence (P05107 23-769): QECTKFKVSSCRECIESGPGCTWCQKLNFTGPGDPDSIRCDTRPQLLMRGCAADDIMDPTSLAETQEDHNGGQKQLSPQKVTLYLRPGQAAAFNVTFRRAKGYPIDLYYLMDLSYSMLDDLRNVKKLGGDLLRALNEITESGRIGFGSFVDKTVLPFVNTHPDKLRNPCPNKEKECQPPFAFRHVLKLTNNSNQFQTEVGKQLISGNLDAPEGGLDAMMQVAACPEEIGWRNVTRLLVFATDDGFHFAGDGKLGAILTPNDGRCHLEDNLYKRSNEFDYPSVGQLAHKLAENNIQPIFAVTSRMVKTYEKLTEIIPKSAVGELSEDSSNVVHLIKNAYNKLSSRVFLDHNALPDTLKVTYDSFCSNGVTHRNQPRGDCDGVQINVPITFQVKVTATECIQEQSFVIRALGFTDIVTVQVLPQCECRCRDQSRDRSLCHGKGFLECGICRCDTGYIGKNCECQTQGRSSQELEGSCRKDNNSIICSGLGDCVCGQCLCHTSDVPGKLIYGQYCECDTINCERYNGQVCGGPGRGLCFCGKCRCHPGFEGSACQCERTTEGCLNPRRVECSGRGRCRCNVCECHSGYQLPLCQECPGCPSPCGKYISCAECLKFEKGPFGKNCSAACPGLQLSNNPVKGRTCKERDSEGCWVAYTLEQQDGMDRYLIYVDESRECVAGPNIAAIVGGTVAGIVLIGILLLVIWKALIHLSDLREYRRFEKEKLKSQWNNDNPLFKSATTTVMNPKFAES

Compound: [Mg+2] [Mg^2+, Magnesium]
- Activation induced LFA-1 head-piece opening (m24) on EM CD8 T cells (Mg^2+-restricted conditions vs Mg^2+): reduced activation induced LFA-1 head-piece opening
- Activation induced LFA-1 head-piece opening (m24) on naïve CD8 T cells (moderate TCR stimulation, ±Mg^2+): did not induce LFA-1 head-piece opening
